Values after ≈ are worked out from the molar mass of the structure shown. Starred links: 1 amine or outer side, 2 acyl side, 3 side chain; linkers in the order of their positions; H or OH if unused. Positions of bridges follow the written chain, without caps; N, C: chain ends. Non-standard residues stand in square brackets, D forms with d. Residues, ends and D or L forms follow the SMILES beside them. *: point of attachment. pTerphenylCO(4''-OnC5H11) = CCCCCOc1ccc(-c2ccc(-c3ccc(C(=O)*)cc3)cc2)cc1; X1 = NCC(=O)Nc1cc(CC[C@H](N[*:1])C(=O)[*:2])ccc1O; X2 = NC(N)=N[C@H]1CC(C(=O)[*:2])N([*:1])C1; Hyp = O=C(O)[C@@H]1C[C@@H](O)CN1; Orn = NCCC[C@H](N)C(=O)O
Tests used:
Format in all cases: functional
[1] = organism: Rattus norvegicus; test: Minimum inhibitory concentration against Candida albicans (CCH442) tested in rats
[2] = system: Candida albicans; test: Minimum inhibitory concentration against Candida albicans (CAF2)
[3] = system: Candida albicans; test: Minimum inhibitory concentration against 41 strains of C. albicans; Range is 0.25-1.0 ug/mL
[4] = system: Aspergillus fumigatus; test: Minimum inhibitory concentration against Aspergillus fumigatus
[5] = organism: Mus musculus; test: Minimum inhibitory concentration against Candida albicans (CCH442) tested in mice

Row | SMILES | MIC [1] | MIC [2] | MIC [3] | MIC [4] | MIC [5]
1 | CCCCCOc1ccc(-c2ccc(-c3ccc(C(=O)N[C@H]4CCCNC(=O)C5C[C@H](N=C(N)N)CN5C(=O)[C@H]([C@@H](C)O)NC(=O)[C@H](CCc5ccc(O)c(NC(=O)CN)c5)NC(=O)[C@@H]5C[C@@H](O)CN5C(=O)[C@H]([C@@H](C)O)NC4=O)cc3)cc2)cc1 (stereo not given in full) ({pTerphenylCO(4''-OnC5H11)}-[Orn]T[Hyp][X1]T[X2]; lactam 1-C) | 0.5 µg/mL (≈ 0.425 µM) | 0.25 µg/mL (≈ 0.213 µM) | 0.25 µg/mL (≈ 0.213 µM) | > 100 µg/mL | 0.5 µg/mL (≈ 0.425 µM)
2 | C[C@@H]1[C@H](O)[C@@H](C)/C=C/C=C/C=C/C=C/C=C/C=C/C=C/[C@H](O[C@@H]2O[C@H](C)[C@@H](O)[C@H](N)[C@@H]2O)C[C@@H]2O[C@](O)(C[C@@H](O)C[C@@H](O)[C@H](O)CC[C@@H](O)C[C@@H](O)CC(=O)O[C@H]1C)C[C@H](O)[C@H]2C(=O)O [AMPHOTERICIN B] | 1 µg/mL (≈ 1.08 µM) | 0.5 µg/mL (≈ 0.541 µM) |  | 0.78 µg/mL (≈ 0.844 µM) | 1 µg/mL (≈ 1.08 µM)
3 | OC(Cn1cncn1)(Cn1cncn1)c1ccc(F)cc1F [FLUCONAZOLE] | 0.19 µg/mL (≈ 0.62 µM) |  |  |  | 
